Where only a bound is given, the exact number is not on record here.

For orientation: IC50 means the concentration that gives 50% inhibition.

T1 sequence (P33032 whole entry): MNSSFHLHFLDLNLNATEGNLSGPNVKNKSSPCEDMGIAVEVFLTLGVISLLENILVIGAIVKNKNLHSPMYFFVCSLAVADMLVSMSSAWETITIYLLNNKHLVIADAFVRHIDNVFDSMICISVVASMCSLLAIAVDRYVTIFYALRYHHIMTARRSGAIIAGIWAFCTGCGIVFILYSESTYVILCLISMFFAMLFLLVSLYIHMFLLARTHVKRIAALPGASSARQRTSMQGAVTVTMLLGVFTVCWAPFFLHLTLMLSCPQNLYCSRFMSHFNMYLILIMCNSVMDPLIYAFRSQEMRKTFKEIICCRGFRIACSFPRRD

This assay addresses T1, human MC5R (hMC5R) (Homo sapiens, UniProt P33032).
T1 construct: purchased Perkin Elmer RBXMC5M400UA
The assay can be described thus: Human MC5R radioligand binding assay (membranes, [125I] NDP-MSH displacement). Conditions: hMC5R binding; tested as trifluoroacetate or hydrochloride salts, or free bases; read-out: MC5R radioligand IC50. In outline: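 Frozen human MC5R membranes incubated with test compound and in-house iodogen-labeled, HPLC-purified [125I]NDP-MSH for 1 hr at 37° C. Binding measured as displacement of the radioligand.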
In the case of `N=C(N)NCCC[C@@H]1N[C@H](CNC(=O)c2ccc3ccccc3c2)CCN(CC(Oc2ccccc2)c2ccccc2)C1=O` (stereo partly drawn) [Compound 295, N-(((3S,5S)-3-(3-guanidinopropyl)-2-oxo-1-(2-phenoxy-2-phenylethyl)-1,4-diazepan-5-yl)methyl)-2-naphthamide], the IC50 was less than 0.1 µM. As to `CCOC(=O)C(CN1CC[C@@H](CNC(=O)c2ccc3ccccc3c2)N[C@@H](CCCNC(=N)N)C1=O)c1ccccc1` (stereo partly drawn) [Compound 296, ethyl 3-((3S,5S)-5-((2-naphthamido)methyl)-3-(3-guanidinopropyl)-2-oxo-1,4-diazepan-1-yl)-2-phenylpropanoate], the IC50 was less than 1 µM. The same measure for `CCC(CC)CN1CC[C@@H](CNC(=O)c2ccc3ccccc3c2)N[C@@H](CCCNC(=N)N)C1=O` [Compound 297, N-(((3S,5S)-1-(2-ethylbutyl)-3-(3-guanidinopropyl)-2-oxo-1,4-diazepan-5-yl)methyl)-2-naphthamide]: less than 1 µM; for `CC1CC(C)CC(CN2CC[C@@H](CNC(=O)c3ccc4ccccc4c3)N[C@@H](CCCNC(=N)N)C2=O)C1` (stereo partly drawn) [Compound 298, N-(((3S,5S)-1-((3,5-dimethylcyclohexyl)methyl)-3-(3-guanidinopropyl)-2-oxo-1,4-diazepan-5-yl)methyl)-2-naphthamide]: less than 0.1 µM; for `NCC[C@@H]1N[C@H](CCNC(=O)c2ccc3ccccc3c2)CCN(CC(c2ccccc2)c2ccccc2)C1=O` [Compound 303, N-(2-((3S,5R)-1-(2,2-diphenylethyl)-2-oxo-3-(2-aminoethyl)-1,4-diazepan-5-yl)ethyl)-2-naphthamide]: less than 1 µM.

With `O=C(NCC[C@@H]1CCN(CC(c2ccccc2)c2ccccc2)C(=O)[C@H](CCN2CCCCC2)N1)c1ccc2ccccc2c1` [Compound 306, N-(2-((3S,5R)-1-(2,2-diphenylethyl)-2-oxo-3-(2-(piperidin-1-yl)ethyl)-1,4-diazepan-5-yl)ethyl)-2-naphthamide], the IC50 was less than 1 µM. As for `CN(C)C(=O)C(CN1CC[C@@H](CNC(=O)c2ccc3ccccc3c2)N[C@@H](CCCNC(=N)N)C1=O)c1ccccc1` (stereo partly drawn) [Compound 307, N-(((3S,5S)-1-(3-(dimethylamino)-3-oxo-2-phenylpropyl)-3-(3-guanidinopropyl)-2-oxo-1,4-diazepan-5-yl)methyl)-2-naphthamide], the IC50 was less than 10 µM.

On to `N=C(N)NCCC[C@@H]1N[C@H](CNC(=O)c2ccc3ccccc3c2)CCN(Cc2cc(F)cc(Cl)c2)C1=O` [Compound 310, N-(((3S,5S)-1-(3-chloro-5-fluorobenzyl)-3-(3-guanidinopropyl)-2-oxo-1,4-diazepan-5-yl)methyl)-2-naphthamide], for which the IC50 is less than 1 µM. Regarding `N=C(N)NCCC[C@@H]1N[C@H](CNC(=O)c2ccc3ccccc3c2)CCN(Cc2cc(F)cc(F)c2)C1=O` [Compound 311, N-(((3S,5S)-1-(3,5-difluorobenzyl)-3-(3-guanidinopropyl)-2-oxo-1,4-diazepan-5-yl)methyl)-2-naphthamide], the IC50 is less than 1 µM. The same measure for `NCCC[C@@H]1N[C@H](CNC(=O)c2ccc3ccccc3c2)CCN(Cc2cc(F)cc(Cl)c2)C1=O` [Compound 312, N-(((3S,5S)-3-(3-aminopropyl)-1-(3-chloro-5-fluorobenzyl)-2-oxo-1,4-diazepan-5-yl)methyl)-2-naphthamide]: less than 1 µM; for `NCCC[C@@H]1N[C@H](CNC(=O)c2ccc3ccccc3c2)CCN(Cc2cc(F)cc(F)c2)C1=O` [Compound 313, N-(((3S,5S)-3-(3-aminopropyl)-1-(3,5-difluorobenzyl)-2-oxo-1,4-diazepan-5-yl)methyl)-2-naphthamide]: less than 10 µM; for `NCCC[C@@H]1N[C@H](CNC(=O)c2ccc3ccccc3c2)CCN(Cc2cc(Cl)ccc2Cl)C1=O` [Compound 314, N-(((3S,5S)-3-(3-aminopropyl)-1-(2,5-dichlorobenzyl)-2-oxo-1,4-diazepan-5-yl)methyl)-2-naphthamide]: less than 10 µM. The same measure for `NCCC[C@@H]1N[C@H](CNC(=O)c2ccc3ccccc3c2)CCN(Cc2c(Cl)cccc2Cl)C1=O` [Compound 315, N-(((3S,5S)-3-(3-aminopropyl)-1-(2,6-dichlorobenzyl)-2-oxo-1,4-diazepan-5-yl)methyl)-2-naphthamide]: less than 10 µM; for `COc1cc(CN2CC[C@@H](CNC(=O)c3ccc4ccccc4c3)N[C@@H](CCCN)C2=O)cc(OC)c1` [Compound 316, N-(((3S,5S)-3-(3-aminopropyl)-1-(3,5-dimethoxybenzyl)-2-oxo-1,4-diazepan-5-yl)methyl)-2-naphthamide]: less than 10 µM.

For `NCCC[C@@H]1N[C@H](CNC(=O)c2ccc3ccccc3c2)CCN(Cc2ccccc2Cl)C1=O` [Compound 317, N-(((3S,5S)-3-(3-aminopropyl)-1-(2-chlorobenzyl)-2-oxo-1,4-diazepan-5-yl)methyl)-2-naphthamide], the IC50 was less than 10 µM. The same measure for `NCCC[C@@H]1N[C@H](CNC(=O)c2ccc3ccccc3c2)CCN(Cc2cccc(Cl)c2Cl)C1=O` [Compound 318, N-(((3S,5S)-3-(3-aminopropyl)-1-(2,3-dichlorobenzyl)-2-oxo-1,4-diazepan-5-yl)methyl)-2-naphthamide]: less than 10 µM; for `NCCC[C@@H]1N[C@H](CNC(=O)c2ccc3ccccc3c2)CCN(Cc2ccc(Cl)cc2Cl)C1=O` [Compound 319, N-(((3S,5S)-3-(3-aminopropyl)-1-(2,4-dichlorobenzyl)-2-oxo-1,4-diazepan-5-yl)methyl)-2-naphthamide]: less than 1 µM; for `NCCC[C@@H]1N[C@H](CNC(=O)c2ccc3ccccc3c2)CCN(Cc2ccc(Cl)c(Cl)c2)C1=O` [Compound 320, N-(((3S,5S)-3-(3-aminopropyl)-1-(3,4-dichlorobenzyl)-2-oxo-1,4-diazepan-5-yl)methyl)-2-naphthamide]: less than 10 µM. In the case of `Cc1cc(F)cc(CN2CC[C@@H](CNC(=O)c3ccc4ccccc4c3)N[C@@H](CCCN)C2=O)c1` [Compound 321, N-(((3S,5S)-3-(3-aminopropyl)-1-(3-fluoro-5-methylbenzyl)-2-oxo-1,4-diazepan-5-yl)methyl)-2-naphthamide], the IC50 was less than 10 µM.

On to `NCCC[C@@H]1N[C@H](CNC(=O)c2ccc3ccccc3c2)CCN(Cc2cc(F)cc(C(F)(F)F)c2)C1=O` [Compound 322, N-(((3S,5S)-3-(3-aminopropyl)-1-(3-fluoro-5-(trifluoromethyl)benzyl)-2-oxo-1,4-diazepan-5-yl)methyl)-2-naphthamide], for which the IC50 is less than 10 µM. Turning to `NCCC[C@@H]1N[C@H](CNC(=O)c2ccc3ccccc3c2)CCN(Cc2ccc(Cl)cc2)C1=O` [Compound 323, N-(((3S,5S)-3-(3-aminopropyl)-1-(4-chlorobenzyl)-2-oxo-1,4-diazepan-5-yl)methyl)-2-naphthamide], the IC50 is less than 10 µM. The same measure for `CCC(CN1CC[C@@H](CNC(=O)c2ccc3ccccc3c2)N[C@@H](CCCN)C1=O)c1ccccc1` (stereo partly drawn) [Compound 324, N-(((3S,5S)-3-(3-aminopropyl)-2-oxo-1-(2-phenylbutyl)-1,4-diazepan-5-yl)methyl)-2-naphthamide]: less than 1 µM. On to `NCCC[C@@H]1N[C@H](CNC(=O)c2ccc3ccccc3c2)CCN(CC2(c3ccccc3)CCCCC2)C1=O` [Compound 325, N-(((3S,5S)-3-(3-aminopropyl)-2-oxo-1-((1-phenylcyclohexyl)methyl)-1,4-diazepan-5-yl)methyl)-2-naphthamide], for which the IC50 is less than 1 µM. As for `O=C(NC[C@@H]1CCN(Cc2cc(Cl)cc(Cl)c2)C(=O)[C@H](CCN2CCCCC2)N1)c1ccc2ccccc2c1` [Compound 327, N-(((3S,5S)-1-(3,5-dichlorobenzyl)-2-oxo-3-(2-(piperidin-1-yl)ethyl)-1,4-diazepan-5-yl)methyl)-2-naphthamide], the IC50 was less than 0.1 µM. The same measure for `CCC(CC)CN1CC[C@@H](CNC(=O)/C=C/c2ccc(Cl)cc2)N[C@@H](CCN)C1=O` [Compound 330, (E)-N-(((3S,5S)-3-(2-aminoethyl)-1-(2-ethylbutyl)-2-oxo-1,4-diazepan-5-yl)methyl)-3-(4-chlorophenyl)acrylamide]: less than 1 µM; for `CCC(CC)CN1CC[C@@H](CNC(=O)c2ccc3ccccc3c2)N[C@@H](CCN2CCCCC2)C1=O` [Compound 333, N-(((3S,5S)-1-(2-ethylbutyl)-2-oxo-3-(2-(piperidin-1-yl)ethyl)-1,4-diazepan-5-yl)methyl)-2-naphthamide]: less than 0.1 µM; for `O=C(NCC[C@@H]1CCN(CC(c2ccccc2)c2ccccc2)C(=O)[C@H](CCN2CCCC2)N1)c1ccc2ccccc2c1` [Compound 339, N-(2-((3S,5R)-1-(2,2-diphenylethyl)-2-oxo-3-(2-(pyrrolidin-1-yl)ethyl)-1,4-diazepan-5-yl)ethyl)-2-naphthamide]: less than 1 µM. Then `NCCC[C@@H]1N[C@H](CNC(=O)c2ccc3ccccc3c2)CCN(Cc2cc(C(F)(F)F)cc(C(F)(F)F)c2)C1=O` [Compound 340, N-(((3S,5S)-3-(3-aminopropyl)-1-(3,5-bis(trifluoromethyl)benzyl)-2-oxo-1,4-diazepan-5-yl)methyl)-2-naphthamide], with less than 10 µM. Then `NCCC[C@@H]1N[C@H](CNC(=O)c2ccc3ccccc3c2)CCN(Cc2cccc(Cl)c2)C1=O` [Compound 341, N-(((3S,5S)-3-(3-aminopropyl)-1-(3-chlorobenzyl)-2-oxo-1,4-diazepan-5-yl)methyl)-2-naphthamide], with less than 10 µM; and `CCC(CN1CC[C@@H](CNC(=O)c2ccc3ccccc3c2)N[C@@H](CCCN2CCCCC2)C1=O)c1ccccc1` (stereo partly drawn) [Compound 342, N-(((3S,5S)-2-oxo-1-(2-phenylbutyl)-3-(3-(piperidin-1-yl)propyl)-1,4-diazepan-5-yl)methyl)-2-naphthamide], with less than 0.1 µM. For `N=C(N)NCCC[C@@H]1N[C@H](CNC(=O)c2ccc3ccccc3c2)CCN(CC(C(=O)N2CCCCC2)c2ccccc2)C1=O` (stereo partly drawn) [Compound 343, N-(((3S,5S)-3-(3-guanidinopropyl)-2-oxo-1-(3-oxo-2-phenyl-3-(piperidin-1-yl)propyl)-1,4-diazepan-5-yl)methyl)-2-naphthamide], the IC50 is less than 10 µM.
